According to PubChem BioAssay (NCI):
Where “and” joins values, the source holds several entries; their conditions need not be identical. Identical values can stand only once.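 Briefly, cells in 96-well plates were exposed to five compound concentrations for 48 h, and endpoints were estimated by linear interpolation. GI50 marks 50% less growth. At the TGI there is no net growth.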

Tests used:
Experiment in all cases: NCI tumour cell line growth inhibition, 48 h
ACHN renal = system: ACHN renal
HL-60(TB) leukemia = system: HL-60(TB) leukemia
LOX IMVI melanoma = system: LOX IMVI melanoma
MOLT-4 leukemia = system: MOLT-4 leukemia
NCI-H23 lung = system: NCI-H23 lung
NCI-H522 lung = system: NCI-H522 lung
SK-MEL-2 melanoma = system: SK-MEL-2 melanoma
SK-MEL-28 melanoma = system: SK-MEL-28 melanoma
SR leukemia = system: SR leukemia
SW-620 colon = system: SW-620 colon

Row | SMILES | GI50 (ACHN renal) | TGI (ACHN renal) | GI50 (HL-60(TB) leukemia) | TGI (HL-60(TB) leukemia) | GI50 (LOX IMVI melanoma) | TGI (LOX IMVI melanoma) | GI50 (MOLT-4 leukemia) | TGI (MOLT-4 leukemia) | GI50 (NCI-H23 lung) | TGI (NCI-H23 lung) | GI50 (NCI-H522 lung) | TGI (NCI-H522 lung) | GI50 (SK-MEL-2 melanoma) | TGI (SK-MEL-2 melanoma) | GI50 (SK-MEL-28 melanoma) | TGI (SK-MEL-28 melanoma) | GI50 (SR leukemia) | TGI (SR leukemia) | GI50 (SW-620 colon) | TGI (SW-620 colon)
1 | Cc1cc(N2CCCC2)nc(N(CCCNc2ccnc3cc(Cl)ccc23)Cc2ccc3c(c2)OCO3)n1 | 1670 nM | 5930 nM | 402 nM | 1360 nM | 1030 nM | 2350 nM | 1300 nM | 4640 nM | 2360 nM | 15500 nM | 1660 nM | 3950 nM | 1840 nM | 4000 nM | 1300 nM | 2740 nM | 152 nM | 431 nM | 1210 nM | 2870 nM
2 | Nc1nc(Nc2cccc(F)c2)nc2ccccc12 | 20400 nM | 76800 nM | 25500 nM | 68400 nM | 15500 nM | 29000 nM | 14600 nM | > 100000 nM | 24100 nM | > 100000 nM | 23900 nM | 54000 nM | 25300 nM | 48800 nM | 15000 nM | 29000 nM | 24700 nM | 80700 nM | 17100 nM | 36600 nM
3 | CC(C)OC(=O)c1ccc2[nH]c(O)c(C(=Nc3ccc(N(C)C(=O)CN4CCN(C)CC4)cc3)c3ccccc3)c2c1 | 332 nM | 1400 nM | 357 nM | 1180 nM | 298 nM | 1430 nM | 274 nM | 2160 nM | 583 nM | 2420 nM | 1220 nM | 3020 nM | 898 nM | 2720 nM | 1150 nM | 2520 nM | 44.3 nM | 721 nM | 369 nM | 1620 nM
4 | Cc1ccc2c(c1)ncn2-c1ncnc2c1CC(C)c1ccccc1N2C (stereo not given) | 383 nM | 12100 nM | 28.2 nM | 78.1 nM | 124 nM | 13000 nM | 60.7 nM | 4360 nM | 428 nM | 19400 nM | 121 nM | 5680 nM | 1130 nM | 18300 nM | 1840 nM | 15600 nM | 36.2 nM | 1980 nM | 43.5 nM | 15900 nM
5 | CCCCCc1c(C)[nH]c(/C=C2\N=C(c3ccc[nH]3)C=C2Oc2ccc(Cl)cc2)c1C | 196 nM and 39.7 nM | 1220 nM and 2110 nM | 213 nM and 63.7 nM | 1480 nM and 1010 nM | 20.4 nM and < 10 nM | 46 nM and 47.3 nM | 64 nM | 1880 nM | 160 nM and 73.9 nM | 3250 nM and 2620 nM | 45.5 nM and 30.5 nM | 1020 nM and 1280 nM | 57.8 nM and 29.3 nM | 230 nM and 108 nM | 169 nM and 74.2 nM | 1530 nM and 943 nM | 37.2 nM and < 10 nM | > 100000 nM | 38.7 nM and 22.8 nM | 2580 nM and 1290 nM
6 | CCCCC[C@H]1C/C=C2/C(=O)C(Cl)=C[C@@H]2C/C=C\CCCC(=O)O[C@@H](CCCCC)C/C=C2/C(=O)C(Cl)=C[C@@H]2C/C=C\CCCC(=O)O1 | 623 nM | 2150 nM | 429 nM | 1270 nM | 201 nM | 437 nM | 234 nM | 1710 nM | 340 nM | 838 nM | 352 nM | 780 nM | 362 nM | 918 nM | 407 nM | 1010 nM | 159 nM | 1350 nM | 512 nM | 1770 nM
7 | Cn1cc(-c2ccc3c(c2)CCN3C(=O)Cc2cccc(C(F)(F)F)c2)c2c(N)ncnc21 | 871 nM | 13200 nM | 5390 nM | 33000 nM | 3120 nM | 16300 nM | 3550 nM | 18600 nM | 4430 nM | 24200 nM | 10100 nM | 29000 nM | 4620 nM | 28600 nM | 4720 nM | 21400 nM | 2380 nM | 23400 nM | 4890 nM | 20800 nM
8 | CCc1c[nH]c2ncnc(N3CC[C@@](N)(CNC(=O)c4ccc(F)cc4F)C3)c12 | 23800 nM | > 100000 nM | 38700 nM | > 100000 nM | 31100 nM | > 100000 nM | 18700 nM | > 81200 nM | 26400 nM | > 100000 nM | 29600 nM | > 75700 nM | 35500 nM | > 100000 nM | 45400 nM | > 100000 nM | 16400 nM | 44100 nM | 31300 nM | > 100000 nM
9 | CC(CCCOC(c1ccccc1)(c1ccccc1)c1ccccc1)OC(=O)Nc1cc([N+](=O)[O-])cc([N+](=O)[O-])c1 (stereo not given) | – | 93500 nM | – | 85300 nM | – | > 100000 nM | – | > 100000 nM | – | 58700 nM | – | 59500 nM | – | 78900 nM | – | 54400 nM | – | > 100000 nM | – | > 100000 nM
10 | Clc1ccc(CN2COc3c(cc(Cl)c4cccnc34)C2)cc1 | – | 8740 nM | – | 2110 nM | – | 2970 nM | – | 5020 nM | – | 6800 nM | – | 3120 nM | – | 3870 nM | – | 7380 nM | – | 6880 nM | – | 11000 nM
11 | CC(=O)Oc1ccccc1C(=O)C1c2cccc(O)c2C(=O)c2c(O)cccc21 | – | 3450 nM | – | 727 nM | – | 4190 nM | – | 6010 nM | – | 4330 nM | – | 3880 nM | – | 2900 nM | – | 7140 nM | – | 967 nM | – | 2260 nM
12 | COc1cc(/C=C(/c2ccccc2)[N+](=O)[O-])c(OC)c2c1OCO2 | 1710 nM | 3080 nM | 1790 nM | 5640 nM | 1140 nM | 2440 nM | 1860 nM | 6410 nM | 1730 nM | 3410 nM | 1590 nM | 4030 nM | 1850 nM | 4000 nM | 1470 nM | 2840 nM | 334 nM | 2650 nM | 1520 nM | 3560 nM
13 | O=c1oc2ccc(Cl)cc2c(=O)n1-c1ccc(I)cc1F | 315 nM | 7510 nM | 286 nM | 1360 nM | 248 nM | 1690 nM | 384 nM | 1810 nM | 169 nM | 1500 nM | 111 nM | 1830 nM | 116 nM | 945 nM | 178 nM | 2010 nM | 228 nM | 5970 nM | 384 nM | 7580 nM
